Assay results from patent US20260130900A1, “Controlled Release Pharmaceutical Composition” (Daewoong Pharmaceutical Co., Ltd., priority 2022, published 2026).

Assay: Single-dose escalating clinical testing, safety/tolerability of the active ingredient
Type: in vivo, human
Source text: In order to confirm the safety/tolerability of the active ingredient in the human body, side effects were checked in healthy adult subjects.
The clinical testing was designed for 32 healthy adult subjects in a randomized, double-blinded, placebo-controlled, single-dose escalating manner, as shown in Table 1 below. The capsule tablets used in this clinical testing were produced by using Vcaps® enteric-coated capsules containing only the active ingredient in hydrochloride form without additional excipients, and filling capsules by volume. The ingredients of the enteric-coated tablet (1 tablet) used in the clinical testing are shown in Table 2 below, and were named ‘Comparative Example 1’. In addition, for the enteric-coated tablet administrated group, 5 tablets were administered at a time.

O[C@H]1CCCN[C@@H]1CCCn1cnc2c(Cl)c(Cl)ccc21 [API, (2R,3S)-2-(3-(4,5-dichloro-1H-benzo[d]imidazol-1-yl)propyl) piperidin-3-ol 1HCl]
time of occurrence of nausea and vomiting side effects versus exposure in the body (single administration, FIG. 1): the majority of cases occur before the blood concentration in the body increases | most frequently occurring adverse reactions (single oral administration 100-600 mg, enteric coated capsule or tablet, healthy adult subjects): gastrointestinal adverse reactions including nausea, vomiting, diarrhea, and abdominal pain
